These results are taken from PubChem BioAssay (NCI).

What all share (experiment): NCI anticancer screen, dose series, 48 h
For experiment [1], the system named is 786-0 renal.
Experiment [2] deals with A498 renal.
Experiment [3] has as its system BT-549 breast.
Experiment [4] deals with CAKI-1 renal.
Experiment [5] deals with HCT-15 colon.
Experiment [6] has as its system K-562 leukemia.
For experiment [7], the system named is KM12 colon.
Experiment [8] concerns M14 melanoma.
For experiment [9], the system named is MALME-3M melanoma.
The test system of experiment [10] is MCF7 breast.
Experiment [11] concerns MDA-MB-435.
Experiment [12] concerns NCI-H23 lung.
Experiment [13] concerns NCI-H460 lung.
In experiment [14] the test system is OVCAR-3 ovarian.
Experiment [15] has as its system OVCAR-8 ovarian.
Experiment [16] concerns SK-MEL-5 melanoma.
Experiment [17] concerns SNB-19 CNS.
For experiment [18], the system named is SNB-75 CNS.
In experiment [19] the test system is TK-10 renal.

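All cell lines were grown in 96-well plates and treated with compound for 48 hours. TGI denotes the concentration required for complete inhibition of growth.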

Turning to `C[S+](C)CC(=O)c1ccc2c(c1)Sc1ccccc1O2`, the TGI is 9.49 µM in experiment [1]; 26.9 µM in [2]; 6.17 µM in experiment [3]; 15 µM in experiment [4]; 13.2 µM in experiment [5]; greater than 100 µM in experiment [6]. For the same compound, the TGI amounted to 2.87 µM in [7]; 3.48 µM in experiment [8]; 12 µM in experiment [9]; 7.28 µM in experiment [10]; 10.1 µM in [11]; 14 µM in experiment [12]. Further, the TGI in experiment [13] was found to be 16.2 µM; in experiment [14], 7.58 µM; in experiment [15], 13.6 µM; in [16], 2.92 µM; in [17] it was 17.1 µM; in experiment [18], 14.2 µM. Further, the TGI in [19] came to 16.3 µM.

For the compound `O=[N+]([O-])C(=C(Nc1ccccc1)Nc1ccccc1)/C(Cl)=C(\Cl)Br`, the TGI in [1] is 31.2 µM; in [2] it was 35.6 µM; in experiment [3] it was 60.5 µM; in experiment [5] it was 24.2 µM; in experiment [6] it was 13.2 µM; in experiment [7], 26.2 µM. Besides, the TGI in experiment [8] amounted to 20.1 µM; in experiment [9], 37.1 µM; in experiment [10] it was 33.9 µM; in [12] it was 29.1 µM; in experiment [13], 54.5 µM; in experiment [14], 19.4 µM. The TGI turned out to be 37 µM in experiment [15] and 28.4 µM in experiment [18].

Regarding `CN(/N=C\c1ccc2ccccc2c1)C1=NCCN1`, the TGI was 47.4 µM in experiment [1]; 28.6 µM in experiment [2]; 29.9 µM in [3]; 27.4 µM in experiment [4]; greater than 100 µM in [5]; 45.2 µM in experiment [6]. Besides, the TGI in experiment [7] was 32.8 µM; in [9], 29.7 µM; in [10] it was 38.7 µM; in experiment [11], 30.1 µM; in experiment [12], greater than 100 µM; in experiment [13], 30.6 µM. In addition, the TGI in experiment [14] is 99.6 µM; in [15] it was greater than 100 µM; in experiment [16] it was 28.6 µM; in experiment [18] it was 41.5 µM; in experiment [19], 28.5 µM.

For the compound `CC(=O)N/N=C1/CC[C@@]2(C)C(=CC[C@H]3C4CCC(C(C)CCCC(C)C)[C@@]4(C)CCC32)C1(C)C` (some centres undefined), the TGI in experiment [1], in [3], in [4], in [5], in [6] and in experiment [7] was greater than 100 µM in each case. Besides, the TGI in [8], in experiment [9], in [10], in experiment [11], in [12] and in experiment [13] was greater than 100 µM throughout. Besides, the TGI in experiment [14], in experiment [15], in experiment [16], in experiment [17], in experiment [18] and in experiment [19] was greater than 100 µM in each case.

Regarding `Cc1sc(N)c(S(=O)(=O)c2ccccc2)c1C`, the TGI in experiment [1], in experiment [2], in experiment [3], in experiment [4], in experiment [5] and in experiment [6] was greater than 100 µM in each case. The TGI in experiment [7], in experiment [8], in [9], in experiment [10], in experiment [11] and in [12] was greater than 100 µM in each case. For the same compound, the TGI in experiment [13], in experiment [14], in experiment [15], in experiment [16], in experiment [17] and in experiment [18] was greater than 100 µM each time. In addition, the TGI in experiment [19] was greater than 100 µM.

In the case of `CN(NC(=O)/C(=C\c1ccco1)NC(=O)c1ccccc1)c1cn[nH]c(=O)c1Cl`, the TGI in [1], in experiment [4], in [5], in experiment [6], in experiment [7] and in experiment [8] was greater than 100 µM each time. Further, the TGI in experiment [9], in experiment [10], in [11], in experiment [12], in experiment [13] and in experiment [14] was greater than 100 µM in each case. The TGI in [15] was greater than 100 µM; in experiment [16], 94.9 µM; in experiment [17] it was greater than 100 µM; in experiment [18] it was 84.2 µM; in experiment [19] it was greater than 100 µM.

In the case of `COc1ccc(CCNC(=O)CCc2ccccc2CO)cc1OC`, the TGI in experiment [1], in experiment [2], in experiment [3], in experiment [4], in experiment [5] and in [6] was greater than 100 µM in each case. For the same compound, the TGI in [7], in experiment [8], in experiment [10], in experiment [11], in [12] and in experiment [13] was greater than 100 µM each time. Besides, the TGI in experiment [14], in [15], in experiment [16], in experiment [17], in experiment [18] and in experiment [19] was greater than 100 µM throughout.

Consider `CC1(C)CCC[C@]2(C)[C@@H]1CC[C@@]13O[C@@H]1C1=C(CO)C(=O)OC1=C[C@@H]23`, for which the TGI in experiment [1] is 27.3 µM; in experiment [2] it was 76.8 µM; in experiment [3] it was 51 µM; in [4], 34.2 µM; in [5], 63.7 µM; in [6], greater than 100 µM. The TGI was 24.8 µM in [7]; 33.9 µM in experiment [8]; 23.7 µM in experiment [9]; greater than 100 µM in experiment [10]; 61.5 µM in [11]; 46.5 µM in [12]. Further, the TGI in experiment [13] amounted to 67.4 µM; in experiment [16], 29.5 µM; in experiment [17] it was 28.7 µM; in [18] it was 88.4 µM; in experiment [19] it was 55.5 µM.
